Experiments:
[1] = test system: EGFR^del19+T790M+C797S; test: EGFR protein degradation test (Western blot) in Ba/F3 cells expressing mutant EGFR del19+T790M+C797S (DTC); assay type: cell-based; conditions: compounds at 0.1 μM and 1 μM, 24 hours, Western blot with EGFR antibody
Experimental: (§1) The ability of the compounds of the present invention to degrade the mutant EGFR protein was confirmed in Ba/F3 cells expressing normal EGFR, mutant EGFR^del19+T790M+C797S or mutant EGFR^L858R+T790M+C797S. A Western blot test using the EGFR antibody was performed.
(§2) Specifically, Ba/F3 cells expressing EGFR were cultured in RPMI 1640 (Gibco, NY, USA) containing 10% fetal bovine serum (FBS, Gibco, NY, USA). Cells expressing normal EGFR, mutant EGFR^del19+T790M+C797S or mutant EGFR^L858R+T790M+C797S were treated with the compounds of the present invention at concentrations of 0.1 μM and 1 μM, respectively, for 24 hours. After that, it was washed twice with phosphate buffered saline (PBS) and SDS-PAGE was performed with 30 μg of cell lysate. After the protein separated on the gel was transferred to a nitrocellulose membrane, the expression level of the EGFR protein was confirmed using an EGFR antibody (Santa Cruz biotechnology, Santacruz, CA, USA). EGFR bands separated by Western blotting were quantitatively analyzed with Fluo-S MultiImager (Bio-Rad, Hercules, CA, USA).

[2] = biological target: T1, EGFR^L858R+T790M+C797S (Homo sapiens, UniProt P00533, C797S/L858R/T790M); test: EGFR protein degradation test (Western blot) in Ba/F3 cells expressing mutant EGFR L858R+T790M+C797S (LTC); assay type: cell-based; conditions: compounds at 0.1 μM and 1 μM, 24 hours, Western blot with EGFR antibody
T1 construct: expressed in transfected cells; host or cells: Ba/F3
T1 sequence (P00533 25-1210 T790M/C797S/L858R): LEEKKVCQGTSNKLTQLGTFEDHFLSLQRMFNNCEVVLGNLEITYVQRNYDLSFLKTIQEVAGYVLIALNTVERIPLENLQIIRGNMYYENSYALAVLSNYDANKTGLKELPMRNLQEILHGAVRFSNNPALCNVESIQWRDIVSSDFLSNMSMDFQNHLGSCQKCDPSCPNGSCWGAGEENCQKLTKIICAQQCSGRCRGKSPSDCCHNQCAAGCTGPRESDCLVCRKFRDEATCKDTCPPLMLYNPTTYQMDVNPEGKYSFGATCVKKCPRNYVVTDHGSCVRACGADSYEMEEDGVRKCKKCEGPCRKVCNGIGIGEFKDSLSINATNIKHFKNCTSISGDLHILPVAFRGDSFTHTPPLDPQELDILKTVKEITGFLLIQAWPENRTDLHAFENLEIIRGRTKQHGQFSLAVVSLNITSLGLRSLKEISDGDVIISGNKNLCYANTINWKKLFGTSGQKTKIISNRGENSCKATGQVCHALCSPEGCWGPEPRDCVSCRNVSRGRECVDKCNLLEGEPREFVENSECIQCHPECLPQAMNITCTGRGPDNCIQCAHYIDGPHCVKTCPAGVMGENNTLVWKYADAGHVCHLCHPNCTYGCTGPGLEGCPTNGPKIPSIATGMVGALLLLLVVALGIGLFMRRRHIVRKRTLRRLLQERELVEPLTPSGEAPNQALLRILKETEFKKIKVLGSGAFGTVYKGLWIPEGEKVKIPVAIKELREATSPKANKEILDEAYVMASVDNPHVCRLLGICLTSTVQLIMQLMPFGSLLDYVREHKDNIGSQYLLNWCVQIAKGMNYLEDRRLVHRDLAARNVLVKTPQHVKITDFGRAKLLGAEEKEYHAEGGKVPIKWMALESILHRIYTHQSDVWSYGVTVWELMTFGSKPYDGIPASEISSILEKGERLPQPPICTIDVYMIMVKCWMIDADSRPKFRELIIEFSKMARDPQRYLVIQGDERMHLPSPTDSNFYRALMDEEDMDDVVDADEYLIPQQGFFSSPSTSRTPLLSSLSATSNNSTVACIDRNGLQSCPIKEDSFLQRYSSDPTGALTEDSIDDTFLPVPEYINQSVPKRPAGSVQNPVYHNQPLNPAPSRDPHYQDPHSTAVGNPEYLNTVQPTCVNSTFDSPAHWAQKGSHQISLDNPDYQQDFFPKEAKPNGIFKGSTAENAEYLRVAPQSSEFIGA
Experimental: as §1, §2

Row | SMILES | DTC (EGFR^del19+T790M+C797S) protein degradation [1] | LTC (EGFR^L858R+T790M+C797S) protein degradation [2]
1 | COc1cc(N2CCN(CCCCOc3cccc4c3C(=O)N(C3CCC(=O)NC3=O)C4=O)CC2)ccc1Nc1ncc(Cl)c(Nc2ccccc2N(C)S(C)(=O)=O)n1 (stereo not shown) [Compound 14, N-(2-((5-chloro-2-((4-(4-(4-((2-(2,6-dioxopiperidin-3-yl)-1,3-dioxoisoindolin-4-yl)oxy)butyl)piperazin-1-yl)-2-methoxyphenyl)amino)pyrimidin-4-yl)amino)phenyl)-N-methylmethanesulfonamide] | − (Protein degradation < 20%) | + (Protein degradation 20~80%)
2 | COc1cc(N2CCC3(CCN(CC(=O)N[C@H](C(=O)N4C[C@H](O)CC4C(=O)NCc4ccc(-c5scnc5C)cc4)C(C)(C)C)CC3)CC2)ccc1Nc1ncc(Cl)c(Nc2ccccc2N(C)S(C)(=O)=O)n1 (stereo in doubt) [Compound 31, (2R,4R)-1-((S)-2-(2-(9-(4-((5-chloro-4-((2-(N-methylmethylsulfonamido)phenyl)amino)pyrimidin-2-yl)amino)-3-methoxyphenyl)-3,9-diazaspiro[5,5]undecan-3-yl)acetamido)-3,3-dimethylbutanoyl)-4-hydroxy-N-(4-(4-methylthiazol-5-yl)benzyl)pyrrolidin-2-carboxamide] | ++ (Protein degradation > 80%) | + (Protein degradation 20~80%)
3 | COc1cc(N2CCN(CC3CCN(CC(=O)Nc4cccc5c4C(=O)N(C4CCC(=O)NC4=O)C5=O)CC3)CC2)ccc1Nc1ncc(Cl)c(Nc2ccccc2N(C)S(C)(=O)=O)n1 (stereo not shown) [Compound 25, 2-(4-((4-(4-((5-chloro-4-((2-(N-methylmethylsulfonamido)phenyl)amino)pyrimidin-2-yl)amino)-3-methoxyphenyl)piperazin-1-yl)methyl)piperidin-1-yl)-N-(2-(2,6-dioxopiperidin-3-yl)-1,3-dioxoisoindolin-4-yl)acetamide] | − (Protein degradation < 20%) | − (Protein degradation < 20%)
4 | COc1cc(N2CCC(N3CCN(CCNc4ccc5c(c4)C(=O)N(C4CCC(=O)NC4=O)C5=O)CC3)CC2)ccc1Nc1ncc(Cl)c(Nc2ccccc2N(C)S(C)(=O)=O)n1 (stereo not shown) [Compound 58, N-(2-((5-chloro-2-((4-(4-(4-(2-((2-(2,6-dioxopiperidin-3-yl)-1,3-dioxoisoindolin-5-yl)amino)ethyl)piperazin-1-yl)piperidin-1-yl)-2-methoxyphenyl)amino)pyrimidin-4-yl)amino)phenyl)-N-methylmethanesulfonamide] | − (Protein degradation < 20%) | + (Protein degradation 20~80%)
5 | CN(c1ccccc1Nc1nc(Nc2ccc(N3CCN(CC4CCN(CCOc5cccc6c5C(=O)N(C5CCC(=O)NC5=O)C6=O)CC4)CC3)c(F)c2)ncc1Cl)S(C)(=O)=O (stereo not shown) [Compound 46, N-(2-((5-chloro-2-((4-(4-((1-(2-((2-(2,6-dioxopiperidin-3-yl)-1,3-dioxoisoindolin-4-yl)oxy)ethyl)piperidin-4-yl)methyl)piperazin-1-yl)-3-fluorophenyl)amino)pyrimidin-4-yl)amino)phenyl)-N-methylmethanesulfonamide] | + (Protein degradation 20~80%) | + (Protein degradation 20~80%)
6 | COc1cc(N2CCC(N3CCN(CCOCCOc4cccc5c4C(=O)N(C4CCC(=O)NC4=O)C5=O)CC3)CC2)ccc1Nc1ncc(Cl)c(Nc2ccccc2N(C)S(C)(=O)=O)n1 (stereo not shown) [Compound 13, N-(2-((5-chloro-2-((4-(4-(4-(2-(2-((2-(2,6-dioxopiperidin-3-yl)-1,3-dioxoisoindolin-4-yl)oxy)ethoxy)ethyl)piperazin-1-yl)piperidin-1-yl)-2-methoxyphenyl)amino)pyrimidin-4-yl)amino)phenyl)N-methylmethanesulfonamide] | + (Protein degradation 20~80%) | + (Protein degradation 20~80%)
7 | COc1cc(N2CCC(CN3CCC(C(=O)Nc4cccc5c4CN(C4CCC(=O)NC4=O)C5=O)CC3)CC2)ccc1Nc1ncc(Cl)c(Nc2ccccc2N(C)S(C)(=O)=O)n1 (stereo not shown) [Compound 49, 1-((1-(4-((5-chloro-4-((2-(N-methylmethylsulfonamido)phenyl)amino)pyrimidin-2-yl)amino)-3-methoxyphenyl)piperidin-4-yl)methyl)-N-(2-(2,6-dioxopiperidin-3-yl)-1-oxoisoindolin-4-yl)piperidin-4-carboxamide] | − (Protein degradation < 20%) | − (Protein degradation < 20%)
8 | COc1cc(N2CCC(N(C)CCCCOc3cccc4c3C(=O)N(C3CCC(=O)NC3=O)C4=O)CC2)ccc1Nc1ncc(Cl)c(Nc2ccccc2N(C)S(C)(=O)=O)n1 (stereo not shown) [Compound 3, N-(2-((5-chloro-2-((4-(4-((4-((2-(2,6-dioxopiperidin-3-yl)-1,3-dioxoisoindolin-4-yl)oxy)butyl)(methyl)amino)piperidin-1-yl)-2-methoxyphenyl)amino)pyrimidin-4-yl)amino)phenyl)-N-methylmethanesulfonamide] | − (Protein degradation < 20%) | − (Protein degradation < 20%)
9 | COc1cc(N2CCN(CC3CCN(CC4CCN(c5ccc6c(c5)C(=O)N(C5CCC(=O)NC5=O)C6=O)CC4)CC3)CC2)ccc1Nc1ncc(Cl)c(Nc2ccccc2N(C)S(C)(=O)=O)n1 (stereo not shown) [Compound 59, N-(2-((5-chloro-2-((4-(4-((1-((1-(2-(2,6-dioxopiperidin-3-yl)-1,3-dioxoisoindolin-5-yl)piperidin-4-yl)methyl)piperidin-4-yl)methyl)piperazin-1-yl)-2-methoxyphenyl)amino)pyrimidin-4-yl)amino)phenyl)-N-methylmethanesulfonamide] | ++ (Protein degradation > 80%) | + (Protein degradation 20~80%)
10 | COc1cc(N2CCC3(CCN(CC(=O)Nc4cccc5c4CN(C4CCC(=O)NC4=O)C5=O)CC3)CC2)ccc1Nc1ncc(Cl)c(Nc2ccccc2N(C)S(C)(=O)=O)n1 (stereo not shown) [Compound 50, 2-(9-(4-((5-chloro-4-((2-(N-methylmethylsulfonamido)phenyl)amino)pyrimidin-2-yl)amino)-3-methoxyphenyl)-3,9-diazaspiro[5.5]undecan-3-yl)-N-(2-(2,6-dioxopiperidin-3-yl)-1-oxoisoindolin-4-yl)acetamide] | + (Protein degradation 20~80%) | − (Protein degradation < 20%)
11 | COc1cc(N2CCC(N3CCN(CCOCCOCC(=O)Nc4cccc5c4C(=O)N(C4CCC(=O)NC4=O)C5=O)CC3)CC2)ccc1Nc1ncc(Cl)c(Nc2ccccc2N(C)S(C)(=O)=O)n1 (stereo not shown) [Compound 9, 2-(2-(2-(4-(1-(4-((5-chloro-4-((2-(N-methylmethylsulfonamido)phenyl)amino)pyrimidin-2-yl)amino)-3-methoxyphenyl)piperidin-4-yl)piperazin-1-yl)ethoxy)ethoxy)-N-(2-(2,6-dioxopiperidin-3-yl)-1,3-dioxoisoindolin-4-yl)acetamide] | − (Protein degradation < 20%) | − (Protein degradation < 20%)
12 | COc1cc(N2CCN(CC3CCN(CC(=O)N[C@H](C(=O)N4C[C@H](O)CC4C(=O)NCc4ccc(-c5scnc5C)cc4)C4CC4)CC3)CC2)ccc1Nc1ncc(Cl)c(Nc2ccccc2N(C)S(C)(=O)=O)n1 (stereo in doubt) [Compound 55, (2R,4R)-1-((S)-2-(2-(4-((4-(4-((5-chloro-4-((2-(N-methylmethylsulfonamido)phenyl)amino)pyrimidin-2-yl)amino)-3-methoxyphenyl)piperazin-1-yl)methyl)piperidin-1-yl)acetamido)-2-cyclopropylacetyl)-4-hydroxy-N-(4-(4-methylthiazol-5-yl)benzyl)pyrrolidin-2-carboxamide] | − (Protein degradation < 20%) | − (Protein degradation < 20%)
13 | COc1cc(N2CCC(CN3CCN(c4ccc5c(c4)C(=O)N(C4CCC(=O)NC4=O)C5=O)CC3)CC2)ccc1Nc1ncc(Cl)c(Nc2ccccc2N(C)S(C)(=O)=O)n1 (stereo not shown) [Compound 67, N-(2-((5-chloro-2-((4-(4-((4-(2-(2,6-dioxopiperidin-3-yl)-1,3-dioxoisoindolin-5-yl)piperazin-1-yl)methyl)piperidin-1-yl)-2-methoxyphenyl)amino)pyrimidin-4-yl)amino)phenyl)-N-methylmethanesulfonamide] | − (Protein degradation < 20%) | ++ (Protein degradation > 80%)
14 | COc1cc(N2CCC(N3CCN(CCCCCCCCCCC(=O)Nc4cccc5c4C(=O)N(C4CCC(=O)NC4=O)C5=O)CC3)CC2)ccc1Nc1ncc(Cl)c(Nc2ccccc2N(C)S(C)(=O)=O)n1 (stereo not shown) [Compound 5, 11-(4-(1-(4-((5-chloro-4-((2-(N-methylmethylsulfonamido)phenyl)amino)pyrimidin-2-yl)amino)-3-methoxyphenyl)piperidin-4-yl)piperazin-1-yl)-N-(2-(2,6-dioxopiperidin-3-yl)-1,3-dioxoisoindolin-4-yl)undecanamide] | − (Protein degradation < 20%) | − (Protein degradation < 20%)
